Reference: US20120035557A1, “Personal Care Compositions Comprising A Multi-Active System For Down Regulating Cytokines Irritation” (priority 2010, published 2012)
Counter-ions that a name gives are not always drawn.

System: IL-1α (cytokine expression in hTERT keratinocytes)
Test: In vitro assay: IL-1α in supernatants of IL-1β-treated hTERT keratinocytes (sandwich immunoassay, indexed to ATP viability)
Type: cell-based, human
Conditions: for Avg IL-1α measurement: hTERT keratinocytes, 18 hrs, 6 replicates; for IL-1α reduction compared in words (significance groupings): 500 ppm, IL-1β treated hTERT keratinocytes, >95% confidence
Procedure: The following in vitro assay test was conducted to determine the effect of White Tea Extract, Panthenol and Glycyrrhizinate salt on cytokine expression in hTERT keratinocytes:
BACKGROUND: hTERT-keratinocytes are a telomerase-immortalized neonatal epidermal keratinocyte line. Cell cultures of this type are known in the literature and have been used as models for multiple pathways as shown in the following references: Shay and Wright; Carcinogenesis, vol 26; no 5, pp 867-74, 2005; Bodner, et. al., Science, vol 279 pp 349-52, 1998; Ramirez, et. al., Oncogene, 22; pp 433-44, 2002. These cells display many features characteristic of normal primary keratinocytes and respond to normal growth controls in vitro.
TEST PROTOCOL: all measures were run in replicate (n=6).
To ensure proper levels of the biological active molecules for the in vitro study, dilution studies are conducted and ATP is analyzed for the highest non-cytotoxic concentration. White Tea Extract (H1615 WS, lot 98680094S-005) at a level of 500 ppm, Panthenol (lot 10063909S-018) at a level of 500 ppm, and Glycyrrhizinate salt (Barnet 25908N297) at a level of 500 ppm are used for this study. ATP analysis is described below.
ATP analysis is conducted using Cell Titer-Glo. The CellTiter-Glo Luminescent Cell Viability Assay is obtained from Promega Corporation (Madison, Wis.). This assay is a homogeneous method for determining the number of viable cells in culture based on quantitation of ATP present, signaling the presence of metabolically active cells. After the final treatment and supernatants collected, the CellTiter-Glo reagent is added. The reagent is then transferred to a BD Falcon (Franklin Lakes, N.J.) Microtest 96-well Assay Plate (black, flat bottom, reference 353945, lot 041151). Luminescence is read on a Perkin Elmer Fluorimeter (Wallac Envision 2101 Multilabel Reader). Relative luminescence units are plotted in percent control versus treatment concentration.
hTERT cells are cultured in complete EpiLife (Cascade Biologics, Portland, Oreg.) culture media in T75 culture flasks (Falcon, Becton Dickinson Labware, Franklin Lakes, N.J.) under 37° C./5% CO2 conditions. […] 2 ml of the cell suspension (density 20,000/cm^2) are plated in each well of a 6-well culture dish (Falcon) and cultured under 37° C./5% CO2 conditions overnight. A complete media exchange is performed and the cells are again cultured overnight under 37° C./5% CO2 conditions. The culture media is removed and 2 ml of treatment are placed in each well and the cells are cultured for 18 hrs. For all legs other than Control, IL-1β is added to the treatment at 1 nanogram per mL (for 2 nanograms per treatment). After the treatment period, the cell culture supernatants are collected and analyzed immediately for Interleukin-1α with an R&D Systems (Minneapolis, Minn.) kit which deploys the quantitative sandwich immunoassay technique. ATP is measured from cell lysates an indicator of viability. IL-1α is indexed to cell viability to ensure a proper reading of actual activity.
TESTING: This test was conducted and the analysis of the data is as follows. Statistical differences among treatments for IL-1α were analyzed via JMP using a log-transform before the analysis of variance. The log-transform ensures that the response data are normally distributed and have equal variance. […]

[1] = 500 ppm ingredient + IL-1β 1 nanogram per mL, IL-1α indexed to cell viability

CC1(C)[C@@H](O[C@H]2O[C@H](C(=O)O)[C@@H](O)[C@H](O)[C@H]2O[C@H]2O[C@@H](C(=O)O)[C@H](O)[C@@H](O)[C@@H]2O)CC[C@]2(C)[C@H]3C(=O)C=C4[C@@H]5C[C@@](C)(C(=O)O)CC[C@]5(C)CC[C@@]4(C)[C@]3(C)CC[C@@H]12 [Glycyrrhizinate salt]
Avg IL-1α measurement [1]: 17.57 | IL-1α reduction compared in words (significance groupings): slightly higher IL-1α reduction

CC(C)(CO)[C@@H](O)C(=O)NCCCO [Panthenol]
Avg IL-1α measurement [1]: 24.41 | IL-1α reduction compared in words (significance groupings): not significantly different than the IL-1β treated cells

C[C@H]1C[C@H]2[C@@H]3CCC4=CC(=O)C=C[C@]4(C)[C@@]3(F)[C@@H](O)C[C@]2(C)[C@@]1(O)C(=O)CCl [Clobetasol, reference compound]
Avg IL-1α measurement (4.5 ppm + IL-1β, positive control): 14.29
